Data reported in PubChem BioAssay (NCI).
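Cells were grown in 96-well plates and exposed to each compound for 48 hours at five concentrations; endpoints were interpolated linearly between bracketing concentrations, or set to the highest concentration if not reached. GI50 = concentration required for 50% inhibition of growth. TGI: concentration producing complete growth inhibition.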

Legend:
Assay in all cases: NCI anticancer screen, dose series, 48 h
RXF 393 renal = test system: RXF 393 renal
SF-295 CNS = test system: SF-295 CNS
NCI-H522 lung = test system: NCI-H522 lung
MDA-MB-231 breast = test system: MDA-MB-231 breast
A549 NSCLC = test system: A549 NSCLC
UACC-257 melanoma = test system: UACC-257 melanoma
PC-3 prostate = test system: PC-3 prostate
LOX IMVI melanoma = test system: LOX IMVI melanoma
SK-MEL-5 melanoma = test system: SK-MEL-5 melanoma
NCI-H23 lung = test system: NCI-H23 lung
SK-MEL-28 melanoma = test system: SK-MEL-28 melanoma
SF-268 CNS = test system: SF-268 CNS
MALME-3M melanoma = test system: MALME-3M melanoma
HCT-116 colon = test system: HCT-116 colon
IGROV1 ovarian = test system: IGROV1 ovarian
A498 renal = test system: A498 renal
HCC-2998 colon = test system: HCC-2998 colon
TK-10 renal = test system: TK-10 renal
SK-MEL-2 melanoma = test system: SK-MEL-2 melanoma
MCF7 breast = test system: MCF7 breast
786-0 renal = test system: 786-0 renal
MDA-MB-435 = test system: MDA-MB-435
EKVX NSCLC = test system: EKVX NSCLC
HT29 colon = test system: HT29 colon
HCT-15 colon = test system: HCT-15 colon
HOP-62 NSCLC = test system: HOP-62 NSCLC
SF-539 CNS = test system: SF-539 CNS
OVCAR-4 ovarian = test system: OVCAR-4 ovarian
HL-60(TB) leukemia = test system: HL-60(TB) leukemia
K-562 leukemia = test system: K-562 leukemia
UACC-62 melanoma = test system: UACC-62 melanoma
SR leukemia = test system: SR leukemia
OVCAR-3 ovarian = test system: OVCAR-3 ovarian
SNB-75 CNS = test system: SNB-75 CNS
MOLT-4 leukemia = test system: MOLT-4 leukemia
SK-OV-3 ovarian = test system: SK-OV-3 ovarian
RPMI-8226 leukemia = test system: RPMI-8226 leukemia
BT-549 breast = test system: BT-549 breast
HS 578T breast = test system: HS 578T breast
HOP-92 NSCLC = test system: HOP-92 NSCLC
SW-620 colon = test system: SW-620 colon
KM12 colon = test system: KM12 colon
COLO 205 colon = test system: COLO 205 colon
T-47D breast = test system: T-47D breast
OVCAR-5 ovarian = test system: OVCAR-5 ovarian
CAKI-1 renal = test system: CAKI-1 renal
NCI-H460 lung = test system: NCI-H460 lung
UO-31 renal = test system: UO-31 renal
ACHN renal = test system: ACHN renal
MDA-MB-468 breast = test system: MDA-MB-468 breast
M14 melanoma = test system: M14 melanoma
U251 CNS = test system: U251 CNS
CCRF-CEM leukemia = test system: CCRF-CEM leukemia
SN12C renal = test system: SN12C renal
DU-145 prostate = test system: DU-145 prostate
NCI-H226 lung = test system: NCI-H226 lung
OVCAR-8 ovarian = test system: OVCAR-8 ovarian
SNB-19 CNS = test system: SNB-19 CNS

## CC1=C(C)C(=O)C(NCCN2CCOCC2)=C(Br)C1=O
RXF 393 renal
  GI50: 12.7 µM
  TGI: 25.3 µM
SF-295 CNS
  GI50: 17.8 µM
  TGI: 31.9 µM
NCI-H522 lung
  GI50: 3.01 µM
  TGI: 11.7 µM
MDA-MB-231 breast
  GI50: 5.65 µM
  TGI: 18.7 µM
A549 NSCLC
  GI50: 17.4 µM
  TGI: 34 µM
UACC-257 melanoma
  GI50: 2.55 µM
  TGI: 7 µM
PC-3 prostate
  GI50: 16.9 µM
  TGI: 50.6 µM
LOX IMVI melanoma
  GI50: 2.33 µM
  TGI: 8.36 µM
SK-MEL-5 melanoma
  GI50: 11.6 µM
  TGI: 23.8 µM
NCI-H23 lung
  GI50: 3.84 µM
  TGI: 16.3 µM
SK-MEL-28 melanoma
  GI50: 14.5 µM
  TGI: 28 µM
SF-268 CNS
  GI50: 12.8 µM
  TGI: 32 µM
MALME-3M melanoma
  GI50: 2.25 µM
  TGI: 5.37 µM
HCT-116 colon
  GI50: 2.93 µM
  TGI: 10.9 µM
IGROV1 ovarian
  GI50: 10.5 µM
  TGI: 22.9 µM
A498 renal
  GI50: 19.2 µM
  TGI: 34 µM
HCC-2998 colon
  GI50: 15.3 µM
  TGI: 28.7 µM
TK-10 renal
  GI50: 19.2 µM
  TGI: 33.3 µM
SK-MEL-2 melanoma
  GI50: 11.7 µM
  TGI: 24.2 µM
MCF7 breast
  GI50: 3.66 µM
  TGI: 15.2 µM
786-0 renal
  GI50: 17.8 µM
  TGI: 32.1 µM
MDA-MB-435
  GI50: 1.81 µM
  TGI: 3.35 µM
EKVX NSCLC
  GI50: 12.8 µM
  TGI: 25.9 µM
HT29 colon
  GI50: 16 µM
  TGI: 31.3 µM
HCT-15 colon
  GI50: 15.9 µM
  TGI: 30.9 µM
HOP-62 NSCLC
  GI50: 14.6 µM
  TGI: 28.1 µM
SF-539 CNS
  GI50: 17 µM
  TGI: 31.5 µM
OVCAR-4 ovarian
  GI50: 5.02 µM
  TGI: 17.6 µM
HL-60(TB) leukemia
  GI50: 2.46 µM
  TGI: 7.24 µM
K-562 leukemia
  GI50: 3.3 µM
  TGI: 61.9 µM
UACC-62 melanoma
  GI50: 5.78 µM
  TGI: 18.4 µM
SR leukemia
  GI50: 19.2 µM
  TGI: 66.7 µM
OVCAR-3 ovarian
  GI50: 2.1 µM
  TGI: 7.16 µM
SNB-75 CNS
  GI50: 18.5 µM
  TGI: 34.2 µM
MOLT-4 leukemia
  GI50: 5.35 µM
  TGI: 32.8 µM
SK-OV-3 ovarian
  GI50: 12.5 µM
  TGI: 25.2 µM
RPMI-8226 leukemia
  GI50: 13.9 µM
  TGI: 55 µM
BT-549 breast
  GI50: 13.7 µM
  TGI: 26.6 µM
HS 578T breast
  GI50: 9.04 µM
  TGI: 34.6 µM
HOP-92 NSCLC
  GI50: 13.3 µM
  TGI: 28 µM
SW-620 colon
  GI50: 2.94 µM
  TGI: 14 µM
KM12 colon
  GI50: 16.7 µM
  TGI: 39.6 µM
COLO 205 colon
  GI50: 17.9 µM
  TGI: 33.6 µM
T-47D breast
  GI50: 2.01 µM
  TGI: 4.74 µM
OVCAR-5 ovarian
  GI50: 6.43 µM
  TGI: 19.3 µM
CAKI-1 renal
  GI50: 10.7 µM
  TGI: 23.3 µM
NCI-H460 lung
  GI50: 16.1 µM
  TGI: 34.2 µM
UO-31 renal
  GI50: 11 µM
  TGI: 23.2 µM
ACHN renal
  GI50: 13.8 µM
  TGI: 26.8 µM
MDA-MB-468 breast
  GI50: 0.222 µM
  TGI: 0.885 µM
M14 melanoma
  GI50: 13.6 µM
  TGI: 26.7 µM
U251 CNS
  GI50: 12 µM
  TGI: 25.2 µM
CCRF-CEM leukemia
  GI50: 3.44 µM
  TGI: > 100 µM
SN12C renal
  GI50: 14.9 µM
  TGI: 28.2 µM
DU-145 prostate
  GI50: 12.7 µM
  TGI: 25.7 µM
NCI-H226 lung
  GI50: 12.1 µM
  TGI: 26.7 µM
OVCAR-8 ovarian
  GI50: 3.84 µM
  TGI: 15.8 µM
SNB-19 CNS
  GI50: 16.3 µM
  TGI: 30.5 µM
